According to US9566290B2, “Boron-containing small molecules” (Anacor Pharmaceuticals, Inc., priority 2005, dated 2017):
“And” between values parts separate entries of the source, which are not always exact repeats. Equal values may be shown once. Read-outs that look alike come from different tables or passages of the source.

Assays:
[1] = Log P determination (octanol/water) by LC/MS/MS; format: physicochemical; settings: for Conc. in Octanol / Conc. in Water: partition
Method: C10 (10 μL of […]) at 2× the final concentration was added to 0.5 mL pre-saturated n-octanol and mixed. An equal volume (0.5 mL) of pre-saturated water was added, vortex mixed and then mixed on a rotating shaker for one hour and 24 h in triplicate at ca. 25° C. The organic and aqueous layers were separated by centrifugation for 5 min at ca. 2000 rpm. Twenty five […] of the octanol (top) layer were removed and placed in a pre-labeled tube. Twenty five L of the aqueous layer (bottom) were removed, taking care to avoid octanol contamination, and placed in a pro-labeled tube.
(§1) For the octanol sample, 25 μL of ethanol, 25 μL of water and 300 μL of acetonitrile containing the internal standard was added. For the water sample, 25 μL of ethanol, 25 μL of octanol and 300 μL of acetonitrile containing the internal standard [60 mL of acetonitrile add 6 μL of PNP (1000 μg/mL)] was added. For the calibrators 25 μL of octanol, 25 μL of water and 300 μL of acetonitrile containing the internal standard was added. The sample was vortexed for 10 seconds. Two hundred μL of the organic layer were transferred into a clean deactivated autosampler vial.
(§2) A 1/concentration weighted linear regression was used for the quantitation of C10. All integration were performed with peak areas using Analyst version 1.3, Applied Biosystems. For C10, peak area ratios analyte to internal standard PNP were used for all quantitation.
The partition coefficient (P) was calculated according to the equation detailed below: P=[Sample concentration]octanol/[Sample concentration]water Log P=log10(partition coefficient) Results: […]

[2] = Stability at room temperature in water and octanol; format: physicochemical
Method: C10 (10 μL of 5000 μg/mL) was added both to 0.5 mL n-octanol and 0.5 mL water in triplicate. Samples were mixed. At 0 h and 24 h samples were stored at ca. −20° C. Twenty five L of sample was used for analysis.
as §1, §2

[3] = Solubility in pre-saturated n-octanol or water, visual inspection; format: physicochemical
Method: N-Octanol and water were mutually pre-saturated by vigorously stirring a mixture of both solvents for up to 12 h and the mixture was allowed to separate. Solubility in each solvent was determined by adding 10 μL of 20, 40, 200, 1000 and 5000 μg/mL of C10 in DMSO to the pre-saturated n-octanol or water. After the sample was vortexed for 10 sec, the sample was centrifuged for 10 min at ca. 3000 rpm. A visual inspection was made to determine if the sample was clear or if a pellet had formed on the bottom of the tube.

[4] = Water solubility (table of physicochemical properties)
[5] = test system: Trichophyton rubrum (T. rubrum); test: TurChub zone of inhibition assay through full thickness human nail; format: cell-based; settings: 40 μL/cm^2 per day over five days
Method: The aim of the current study was to assess and compare the perungual absorption of C10 in a simple vehicle using MedPharm's TurChub® model (see http://www.medpharm.co.uk; specificaly http://www.medpharm.co.uk/downloads/Skin%20and%20nail%2dec%202003.pdf viewed Feb. 14, 2006). in a full scale experiment. Six replicates involving C10 were conducted and Formulations Y (8% ciclopirox w/w in commercial lacquer) and Z (Loceryl, 5% amorolfine w/v in commercial lacquer) were used as the reference formulations.
A dose of 40 μL/cm^2 of the test compound C10 in 50:50 propylene glycol:ethyl acetate was applied to a full thickness nail sample each day over a total duration of five days. Both the reference formulations were also applied at the same dose.
Placebo, test item C10 in vehicle and the reference formulations Y and Z were tested for their inhibition of Trichophyton rubrum (T. rubrum) growth after penetration through a full thickness human nail using a zone of inhibition measurement.

[6] = test system: S. cerevisiae diploid (mutant strain/ATCC200901); test: MIC of diploids from yeast mating experiment; format: cell-based, Saccharomyces cerevisiae
Method: The minimal inhibitory concentration (MIC) was essentially performed following the NCCLS guidelines outlined in the M27 protocol with the exception of using YPD or synthetic defined media (SDM).
The haploid mutants derived from S. cerevisiae ATCC201388 were mixed with S. cerevisiae ATCC 200901, and were incubated on YPD agar plates at 30° C. for 4 h. The cell mixture was streaked out on synthetic defined media agar (BD, NJ USA) without the amino acids lysine and methionine, which are selective for diploids.

[7] = test system: S. cerevisiae strain ATCC201388; test: Frequency of spontaneous resistance; format: cell-based, Saccharomyces cerevisiae; settings: spontaneous mutants, at 4×MIC
Method: Resistant mutants appeared after 2 d incubation at 30° C. Frequency of resistance was determined by dividing the number of resistant mutants by the total number of cells plated as determined by plating dilutions of the overnight culture on YPD plates.

**Q.** What does the source list for `OB1OCc2cc(F)ccc21` [C10, 5-fluorobenzo[c][1,2]oxaborol-1(3H)-ol]?
**A.** Log P ([1]; 1 h, replicates): 1.93; Log P ([1]; 24 h, replicates): 1.89 and 1.91; mean log P ([1]; after 24 h (n=3)): 1.93; logP at 1 h ([1]; n-octanol/water, 1 h, replicates, read-out: Log P): 2.04; logP at 24 h ([1]; n-octanol/water, 24 h, replicates): 1.97; logP at 1 h ([1]; n-octanol/water, after 1 h (n=3), read-out: mean log P): 1.97; Conc. in Octanol ([1]; 1 h, replicates): 108 µg/mL and 103 µg/mL and 115 µg/mL; Conc. in Water ([1]; 1 h, replicates): 1.26 µg/mL and 1.21 µg/mL and 1.05 µg/mL; Conc. in Octanol ([1]; 24 h, replicates): 109 µg/mL and 99.0 µg/mL and 104 µg/mL; Conc. in Water ([1]; 24 h, replicates): 1.17 µg/mL and 1.28 µg/mL and 1.27 µg/mL; stability in pure water and octanol, in words ([2]; 24 h, without continuous mixing): stable over 24 h; Percent Remaining 24 h versus 0 g ([2]; Octanol): 93%; Mean ([2]; Octanol, 0 h): 115 µg/mL; Mean ([2]; Octanol, 24 h): 107 µg/mL; Percent Remaining 24 h versus 0 g ([2]; Water): 115%; Mean ([2]; Water, 0 h): 82.5 µg/mL; Mean ([2]; Water, 24 h): 95.0 µg/mL; solubility in octanol and water, in words ([3]; over the concentration range tested): very good; Solubility, Octanol Visual ([3]; targeted conc 0.800 μg/mL): Clear; Solubility, Water Visual ([3]; targeted conc 0.800 μg/mL): Clear; Solubility, Octanol Visual ([3]; targeted conc 4.00 μg/mL): Clear; Solubility, Water Visual ([3]; targeted conc 4.00 μg/mL): Clear; Solubility, Octanol Visual ([3]; targeted conc 20.0 μg/mL): Clear; Solubility, Water Visual ([3]; targeted conc 20.0 μg/mL): Clear; Solubility, Octanol Visual ([3]; targeted conc 100 μg/mL): Clear; Solubility, Water Visual ([3]; targeted conc 100 μg/mL): Clear; solubility [4]: > 100 µg/mL; zone of inhibition, result in words ([5]; full thickness nail): superior results vs. the commercial reference formulations Y and Z; Zones of inhibition ([5]; C10 10% w/v solution, second experiment (FIG. 7), six cells): 74% and 86% and 100% and 82% and 84%; MIC ([6]; Saccharomyces cerevisiae, ATCC200901): 32 µg/mL; MIC ([6]; Saccharomyces cerevisiae, ATCC 200901 / ATCC 201388): 0.5 µg/mL; MIC ([6]; diploid (G)/ATCC200901): 32 µg/mL; MIC ([6]; diploid (H)/ATCC200901): 32 µg/mL; MIC of diploids from C10 mutants versus diploid from parental strain ([6]; three mutants mated with ATCC 200901): 64 fold; frequency of resistance [7]: 1.2×10^−7
